# Test results published in US7345035B2, “Treatment of osteoporosis and autoimmune disease with astrogorgiadiol” (University of Delaware, priority 2003, dated 2008).
# Columns and labels:
# osteopontin mRNA = assay: Northern blot of osteopontin mRNA in ROS 17/2.8 cells; type: cell-based
# Protocol: Changes in levels of mRNA encoding osteopontin induced by astrogorgiadiol were studied by Northern blot. Northern blot analysis was performed as described in Farach-Carson American Journal of Physiology 265: F705-F711 (1993), modified to include varying concentrations of astrogorgiadiol.
# Briefly, […] cells were treated with 1 nM 1, 25 (OH)2vitD3 (BIOMOL Research Laboratories Inc., Plymouth Meeting, Pa.) or 1 nM 1, 25 (OH)2 vitD3 and 3 nM, 30 nM or 300 nM astrogorgiadiol for 0, 3 or 24 hours prior to harvest or with 3 nM, 30 nM or 300 nM astrogorgiadiol. mRNA was extracted using standard techniques. Osteopontin mRNA was detected using a ^32P-labeled osteopontin cDNA probe.
# starfish eggs = conditions: cited from earlier work
smiles,measurement,setting,value
"C=C1/C(=C\C=C2/CCC[C@]3(C)[C@@H]([C@H](C)CCCC(C)(C)O)CC[C@@H]23)C[C@@H](O)C[C@@H]1O [1,25 (OH)2 vitD3, reference compound]",osteopontin mRNA level (Northern blot),"osteopontin mRNA; ROS 17/2.8 cells, 1 nM 1,25 (OH)2 vitD3, 0, 3 or 24 hours prior to harvest",increased osteopontin mRNA
"Cc1ccc(O)cc1CC[C@@H]1[C@H](O)CC[C@]2(C)[C@@H]([C@H](C)CCCC(C)C)CC[C@@H]12 [astrogorgiadiol, Astrogorgiadiol]","1,25 (OH)2 vitD3-induced osteopontin mRNA level (Northern blot)","osteopontin mRNA; 3 nM astrogorgiadiol with 1 nM 1,25 (OH)2 vitD3, ROS 17/2.8 cells","decreased 1,25 (OH)2 vitD3-induced osteopontin mRNA to levels approaching control levels"
same,osteopontin mRNA level (Northern blot),"osteopontin mRNA; 30 nM astrogorgiadiol with 1 nM 1,25 (OH)2 vitD3, ROS 17/2.8 cells",decreased the level of osteopontin mRNA below control levels
same,osteopontin mRNA level (Northern blot),"osteopontin mRNA; 300 nM astrogorgiadiol with 1 nM 1,25 (OH)2 vitD3, ROS 17/2.8 cells",decreased the level of osteopontin mRNA below control levels
same,"osteopontin mRNA level (Northern blot), dose dependence","osteopontin mRNA; ROS 17/2.8 cells, 3 nM, 30 nM or 300 nM astrogorgiadiol, with 1 nM 1,25 (OH)2 vitD3",downregulated osteopontin mRNA in a dose-dependent manner
same,concentration effective to downregulate osteopontin RNA production,osteopontin mRNA; in cells in vitro,3 to 300 nM
same,cell division of starfish eggs,starfish eggs,inhibit cell division of starfish eggs
